Patent US6410011B1, “Gene therapy for restenosis using an adenoviral vector” (priority 1994, dated 2002)

Experiments:
[1] = patients treated for viral infection with a non-toxic dose; cited from earlier work
rabbit aorta VSMC = assay: Cytotoxic activity of the Ad-RSV-TK/ganciclovir combination on smooth muscle cells in culture, by cell counting; format: cell-based; details: ganciclovir alone or Ad-RSV-TK alone
Procedure: The activity of the adenovirus containing the TK gene, prepared in Example 1, was checked on in vitro models of smooth muscle cells. To this end, smooth muscle cells isolated from rat and rabbit aorta were infected with the recombinant adenovirus Ad-RSV-tk and incubated in the presence of ganciclovir. The effect of the Ad-RSV-tk/ganciclovir combination on cell viability is then confirmed by the colorimetric test employing MTT, 3-(4,5-dimethylthiazol-2-yl)-2,5-diphenyl-tetrazolium bromide, according to the technique described by Mosman (J. Immunol. Meth. 65 (1983) 55), or more accurately by cell counting. Briefly, vascular smooth muscle cells (VSMC) are set up in culture by enzymatic digestion of NZW rabbit aorta according to a method adapted from Chamley et al. (Cell Tissue Res. 177: 503-522 1977). The cells are maintained in the presence of 20% of foetal calf serum and used for all the tests (see below) before the tenth passage. […]
In order to measure the cytotoxic activity of the Ad-RSV-TK/ganciclovir combination, rabbit aorta VSMC are incubated in the presence of the adenovirus diluted in culture medium (DMEM, 0.5% FCS). […] Four days after the addition of ganciclovir, the cells are counted (100% cell viability corresponding to cells not transduced with Ad-RSV-TK and not treated with ganciclovir).

Nc1nc(O)c2ncn(COC(CO)CO)c2n1 [ganciclovir]
plasma concentrations [1]: above 15 μM
cell death with a single agent (rabbit aorta VSMC): neither simple treatment with ganciclovir nor transduction with Ad-RSV-TK per se is associated with cell death
